Assay results published in article PMC12155096 (International Journal of Molecular Sciences, 2025).
Where a name gives a salt, the structure may show the parent alone. Read-outs that look alike come from different tables or passages of the source.

Assays:
[1] = target: T1, human CYP1A2 (Homo sapiens, UniProt P05177); test: biochemical; conditions: for AC50: CYP1A2 AC50 (half-maximal activity concentration)
T1 sequence (P05177 1-516): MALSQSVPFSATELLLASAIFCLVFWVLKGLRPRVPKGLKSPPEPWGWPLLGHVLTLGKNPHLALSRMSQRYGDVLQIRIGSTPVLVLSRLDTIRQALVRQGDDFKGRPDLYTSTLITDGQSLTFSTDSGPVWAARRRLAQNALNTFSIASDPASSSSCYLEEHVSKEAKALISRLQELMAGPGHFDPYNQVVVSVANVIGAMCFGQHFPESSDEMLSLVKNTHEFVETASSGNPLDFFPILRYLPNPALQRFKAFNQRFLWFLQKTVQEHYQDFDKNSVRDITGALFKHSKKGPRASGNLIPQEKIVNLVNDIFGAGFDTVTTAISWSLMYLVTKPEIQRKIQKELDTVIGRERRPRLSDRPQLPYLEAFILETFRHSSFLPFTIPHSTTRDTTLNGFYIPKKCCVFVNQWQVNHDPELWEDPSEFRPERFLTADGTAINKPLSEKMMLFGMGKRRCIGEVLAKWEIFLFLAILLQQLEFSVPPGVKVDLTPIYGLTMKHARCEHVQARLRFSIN

[2] = target: Photinus pyralis (firefly) luciferase (Photinus pyralis, UniProt P08659); test: biochemical; type: biochemical
Photinus pyralis (firefly) luciferase, sequence (P08659 whole entry): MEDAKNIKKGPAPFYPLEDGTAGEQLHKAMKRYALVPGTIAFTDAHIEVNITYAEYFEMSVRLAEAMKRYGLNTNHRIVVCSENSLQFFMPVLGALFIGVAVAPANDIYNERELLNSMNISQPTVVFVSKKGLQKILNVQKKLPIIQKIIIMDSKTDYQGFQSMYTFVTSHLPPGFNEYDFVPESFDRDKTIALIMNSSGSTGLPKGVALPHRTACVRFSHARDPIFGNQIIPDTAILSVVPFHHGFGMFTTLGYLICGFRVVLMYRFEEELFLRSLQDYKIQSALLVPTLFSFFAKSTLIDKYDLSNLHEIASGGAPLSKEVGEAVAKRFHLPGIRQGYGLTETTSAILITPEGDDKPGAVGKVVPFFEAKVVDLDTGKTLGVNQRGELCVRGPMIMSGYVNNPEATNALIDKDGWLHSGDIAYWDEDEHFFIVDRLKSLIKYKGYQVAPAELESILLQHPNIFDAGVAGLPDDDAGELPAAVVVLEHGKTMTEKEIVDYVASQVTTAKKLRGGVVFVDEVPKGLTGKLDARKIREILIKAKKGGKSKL

[3] = target: T2, human CYP2D6 (Homo sapiens, UniProt P10635); test: biochemical; conditions: for AC50: CYP2D6 AC50 (half-maximal activity concentration)
T2 sequence (P10635 whole entry): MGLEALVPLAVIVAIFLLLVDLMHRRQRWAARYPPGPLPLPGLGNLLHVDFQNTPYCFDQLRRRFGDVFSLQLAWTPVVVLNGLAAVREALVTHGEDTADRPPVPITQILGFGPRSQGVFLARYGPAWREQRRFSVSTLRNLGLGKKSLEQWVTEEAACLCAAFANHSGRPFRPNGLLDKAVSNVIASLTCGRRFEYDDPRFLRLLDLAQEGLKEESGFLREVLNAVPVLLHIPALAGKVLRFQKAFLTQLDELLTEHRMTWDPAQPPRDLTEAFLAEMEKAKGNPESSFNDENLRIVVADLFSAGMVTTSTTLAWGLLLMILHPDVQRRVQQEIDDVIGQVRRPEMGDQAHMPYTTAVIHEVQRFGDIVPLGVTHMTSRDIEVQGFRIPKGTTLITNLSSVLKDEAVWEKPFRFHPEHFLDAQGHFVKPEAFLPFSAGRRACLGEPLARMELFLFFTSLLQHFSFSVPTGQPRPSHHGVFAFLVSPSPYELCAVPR

[4] = target: T3, human CYP2C19 (Homo sapiens, UniProt P33261); test: biochemical; conditions: for AC50: CYP2C19 AC50 (half-maximal activity concentration)
T3 sequence (P33261 whole entry): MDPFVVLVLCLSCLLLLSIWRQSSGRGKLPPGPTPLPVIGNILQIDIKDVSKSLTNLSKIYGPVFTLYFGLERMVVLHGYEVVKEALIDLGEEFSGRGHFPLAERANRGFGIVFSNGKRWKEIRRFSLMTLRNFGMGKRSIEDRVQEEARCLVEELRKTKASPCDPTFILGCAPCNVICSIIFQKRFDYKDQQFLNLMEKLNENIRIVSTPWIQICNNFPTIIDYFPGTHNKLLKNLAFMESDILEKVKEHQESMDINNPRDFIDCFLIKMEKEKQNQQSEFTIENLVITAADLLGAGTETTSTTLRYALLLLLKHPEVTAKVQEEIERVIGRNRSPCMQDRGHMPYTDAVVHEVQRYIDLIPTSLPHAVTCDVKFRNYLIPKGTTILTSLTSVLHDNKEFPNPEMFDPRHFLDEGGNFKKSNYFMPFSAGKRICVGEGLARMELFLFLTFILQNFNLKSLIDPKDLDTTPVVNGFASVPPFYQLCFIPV

[5] = target: T4, human CYP2C9 (Homo sapiens, UniProt P11712); test: biochemical; conditions: for AC50: CYP2C9 AC50 (half-maximal activity concentration)
T4 sequence (P11712 whole entry): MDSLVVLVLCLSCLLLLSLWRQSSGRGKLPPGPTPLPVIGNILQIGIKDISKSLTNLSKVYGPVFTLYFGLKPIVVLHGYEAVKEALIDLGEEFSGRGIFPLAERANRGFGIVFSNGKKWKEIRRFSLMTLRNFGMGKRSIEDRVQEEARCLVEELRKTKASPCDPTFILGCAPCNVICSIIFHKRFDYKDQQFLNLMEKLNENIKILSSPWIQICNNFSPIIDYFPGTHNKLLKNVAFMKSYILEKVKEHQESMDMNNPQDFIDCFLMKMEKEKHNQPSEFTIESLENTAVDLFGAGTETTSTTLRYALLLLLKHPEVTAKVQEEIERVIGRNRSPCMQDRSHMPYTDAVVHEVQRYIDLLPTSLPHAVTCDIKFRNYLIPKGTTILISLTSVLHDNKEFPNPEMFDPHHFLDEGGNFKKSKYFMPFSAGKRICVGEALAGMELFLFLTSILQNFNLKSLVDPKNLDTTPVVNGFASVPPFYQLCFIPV

[6] = target: T5, CYP3A4 (Homo sapiens, UniProt P08684)
T5 sequence (P08684 whole entry): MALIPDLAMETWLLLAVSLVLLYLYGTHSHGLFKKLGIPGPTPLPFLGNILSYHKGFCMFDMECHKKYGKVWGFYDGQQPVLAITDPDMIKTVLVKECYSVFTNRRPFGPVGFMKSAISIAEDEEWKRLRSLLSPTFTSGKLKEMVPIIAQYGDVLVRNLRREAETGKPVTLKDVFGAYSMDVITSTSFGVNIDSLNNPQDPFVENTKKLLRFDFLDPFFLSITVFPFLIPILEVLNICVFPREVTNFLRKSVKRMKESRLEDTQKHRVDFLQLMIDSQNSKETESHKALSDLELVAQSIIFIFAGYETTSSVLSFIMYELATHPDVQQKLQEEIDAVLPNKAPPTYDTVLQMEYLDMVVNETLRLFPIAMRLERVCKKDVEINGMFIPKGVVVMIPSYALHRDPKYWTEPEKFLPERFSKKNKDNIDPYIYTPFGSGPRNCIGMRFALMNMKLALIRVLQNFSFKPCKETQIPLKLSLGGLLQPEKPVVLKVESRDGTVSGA

[7] = target: T5, CYP3A4; test: biochemical; conditions: for AC50: CYP3A4 AC50 (half-maximal activity concentration)
[8] = target: T4, human CYP2C9
[9] = target: T1, human CYP1A2; conditions: for CYP1A2 Efficacy (in parenthesis): human
[10] = target: T3, human CYP2C19; conditions: for CYP2C19 Efficacy (in parenthesis): human
[11] = target: T2, human CYP2D6; conditions: for CYP2D6 Efficacy (in parenthesis): human
[12] = CYP1A2 IC50 (half-maximal inhibitory concentration)
[13] = CYP2D6 IC50 (half-maximal inhibitory concentration)
[14] = CYP2C19 IC50 (half-maximal inhibitory concentration)
[15] = CYP2C9 IC50 (half-maximal inhibitory concentration)
[16] = CYP3A4 IC50 (half-maximal inhibitory concentration)

SMILES | AC50 [1] [µM] | IC50 [1, 12] [µM] | AC50 [3] [µM] | IC50 [3, 13] [µM] | AC50 [4] [µM] | IC50 [4, 14] [µM] | AC50 [5] [µM] | IC50 [5, 15] [µM] | CYP3A4 IC50 (half-maximal inhibitory concentration) [6] | AC50 [7] [µM] | Luciferase IC50 (half-maximal inhibitory concentration) [2] | IC50 [7, 16] [µM] | also measured
Cc1ccc2c(c1N)C(=O)c1ccccc1C2=O [1-Amino-2-methylanthraquinone] | 0.58 | 0.58 | 5.59 | 5.59 | 5.66 | 5.66 | 3.36 | 3.36 | 0.32 ± 0.14 (91 ± 19) µM | 0.32 | – | – | IC50 [2]: 5.87 µM
COc1c2ccoc2cc2oc(=O)ccc12 [5-Methoxypsoralen] | – | 0.28 | – | 0.1 | – | 10.3 | – | 2.43 | – | – | Inactive | 9.16 | CYP2C9 Efficacy (in parenthesis) ([8]; human): 2.43 ± 0.16 (-105 ± 2) %; CYP1A2 Efficacy (in parenthesis) [9]: 0.28 ± 0.03 (-96 ± 3) %; CYP2C19 Efficacy (in parenthesis) [10]: 10.35 ± 3.33 (-151 ± 18) %; CYP2D6 Efficacy (in parenthesis) [11]: 0.1 ± 0.02 (11 ± 2) %; CYP3A4 Efficacy (in parenthesis) [6]: 9.16 ± 1.5 (-71 ± 2) %
C=CCOc1cc(Cl)ccc1C(=O)NCCN(CC)CC [Alloclamide] | – | – | – | – | – | – | – | – | – | – | Inactive | – | IC50 [1]: 3.34 µM; CYP2C9 IC50 (half-maximal inhibitory concentration) [8]: Inactive; IC50 [3]: 0.28 µM; IC50 [4]: 26.8 µM; IC50 [7]: 16.8 µM
CCN(CCCc1ccccc1)CCCc1ccccc1 [Alverine citrate] | 9.92 | – | 0.87 | – | 7.04 | – | – | – | – | 14.4 | – | – | IC50 ([1]; CYP1A2 IC50): 9.92 µM; CYP2C9 IC50 [8]: Inactive; Luciferase IC50 [2]: Inactive; IC50 ([3]; CYP2D6 IC50): 0.87 µM; IC50 ([4]; CYP2C19 IC50): 7.04 µM; CYP3A4 IC50 [6]: 14.43 ± 1.84 (65 ± 11) µM
CN(C)c1ccc(C(=N)c2ccc(N(C)C)cc2)cc1 [Auramine hydrochloride] | – | 25.3 | – | 0.08 | – | 21 | – | – | – | – | Inactive | 39.3 | CYP2C9 IC50 (half-maximal inhibitory concentration) [8]: Inactive
CC(O)(c1ccc(Cl)cc1)c1ccc(Cl)cc1 [Chlorfenethol] | 30.6 | 30.6 | 55.5 | 55.5 | 0.12 | 0.12 | 7.68 | 7.68 | 11.76 ± 1.5 (55 ± 6) µM | 11.8 | Inactive | – | –
CCOP(=O)(OCC)OC(=CCl)c1ccc(Cl)cc1Cl [Chlorfenvinphos] | 6.58 | 6.58 | 37 | – | 0.83 | 0.83 | 31.9 | – | 1.18 ± 0.21 (70 ± 1) µM | 1.18 | Inactive | – | IC50 [3]: 37 µM; IC50 ([4]; IC50 CYP2C19 assay): 0.77 µM; IC50 [5]: 31.9 µM
CCOC(=O)C(O)(c1ccc(Cl)cc1)c1ccc(Cl)cc1 [Chlorobenzilate] | 44.5 | 44.5 | – | – | 0.39 | 0.39 | 7.68 | – | 9.23 ± 2.97 (118 ± 20) µM | 9.23 | Inactive | – | IC50 [3]: 46.2 µM; IC50 [5]: 7.68 µM; CYP2D6 AC50 (half-maximal activity concentration) [11]: Inconclusive inhibitor
CN1CCc2cc(Cl)c(O)cc2[C@H]2c3ccccc3CC[C@@H]21 [Ecopipam] | – | – | 0.01 | – | – | – | – | – | – | 1.89 | – | – | CYP2C9 IC50 [8]: Inactive; CYP1A2 IC50 [9]: Inactive; Luciferase IC50 [2]: Inactive; IC50 ([3]; CYP2D6 IC50): 0.01 µM; CYP2C19 IC50 [10]: Inactive; CYP3A4 IC50 [6]: 1.89 ± 0.26 (95 ± 11) µM
O=C1C(Cl)C(CCl)CN1c1cccc(C(F)(F)F)c1 (centres unmarked) [Flurochloridone] | 1.04 | 1.04 | 35.9 | 35.9 | 12.3 | 12.3 | 7.82 | – | – | – | Inactive | 6.98 | CYP2C9 IC50 (half-maximal inhibitory concentration) ([8]; human): 7.82 ± 1.95 (82 ± 14) µM; CYP3A4 Efficacy (in parenthesis) [6]: 6.98 ± 2.77 (42 ± 7) %
CC(CCc1ccccc1)NCC(O)c1ccc(O)c(C(N)=O)c1 (centres unmarked) [Labetalol hydrochloride] | – | – | 0.62 | 0.62 | – | – | – | – | 34.77 ± 1.39 (96 ± 9) µM | 34.8 | Inactive | – | CYP2C9 IC50 (half-maximal inhibitory concentration) [8]: Inactive; CYP1A2 IC50 (half-maximal inhibitory concentration) [9]: Inactive
CCCCN1CCCC[C@H]1C(=O)Nc1c(C)cccc1C [Levobupivacaine hydrochloride] | – | 17.4 | – | 0.57 | – | – | – | – | – | – | Inactive | 9.59 | CYP2C9 IC50 (half-maximal inhibitory concentration) [8]: Inactive; CYP1A2 Efficacy (in parenthesis) [9]: 17.38 ± 0 (-62 ± 5) %; CYP2C19 IC50 (half-maximal inhibitory concentration) [10]: Inactive; CYP2D6 Efficacy (in parenthesis) [11]: 0.57 ± 0.04 (-109 ± 3) %; CYP3A4 Efficacy (in parenthesis) [6]: 9.59 ± 2.39 (-54 ± 7) %
CC1(C)CCC(Cc2ccc(Cl)cc2)C1(O)Cn1cncn1 (centres unmarked) [Metconazole] | – | – | – | 41.9 | – | 0.17 | – | 0.23 | – | – | Inactive | 0.06 | CYP2C9 Efficacy (in parenthesis) ([8]; human): 0.23 ± 0.11 (-96 ± 19) %; CYP2C19 Efficacy (in parenthesis) [10]: 0.17 ± 0.05 (-148 ± 4) %; CYP2D6 Efficacy (in parenthesis) [11]: 41.91 ± 7.54 (-75 ± 4) %; CYP3A4 Efficacy (in parenthesis) [6]: 0.06 ± 0.04 (-85 ± 6) %
O=c1[nH]c2ccccc2n1CCCN1CCN(C(c2ccccc2)c2ccccc2)CC1 [Oxatomide] | – | – | 0.62 | – | – | – | 25.3 | – | – | 1.39 | – | – | CYP1A2 IC50 [9]: Inactive; Luciferase IC50 [2]: Inactive; IC50 ([3]; CYP2D6 IC50): 0.62 µM; IC50 ([4]; CYP2C19 IC50): 33.2 µM; CYP2C19 AC50 (half-maximal activity concentration) [10]: Inconclusive inhibitor; IC50 ([5]; CYP2C9 IC50): 25.3 µM; CYP3A4 IC50 [6]: 1.39 ± 0.16 (164 ± 14) µM
ClC(c1ccccc1)(c1ccccc1)c1ccccc1 [Trityl chloride] | – | 75.3 | – | 62.1 | 0.26 | 0.26 | 1.48 | 1.48 | 6.9 ± 1.18 (56 ± 3) µM | 6.9 | Inactive | – | CYP1A2 AC50 (half-maximal activity concentration) [9]: Inconclusive inhibitor; CYP2D6 AC50 (half-maximal activity concentration) [11]: Inconclusive inhibitor
